These results are taken from ChEMBL document CHEMBL1130310, “C3-Thia and C3-carba isosteres of a carbocyclic influenza neuraminidase inhibitor, (3R,4R,5S)-4-acetamido-5-amino-3-propoxyl-1-cyclohexene-1-carboxylic acid” (Bioorg Med Chem Lett, 1997).

In general, IC50 refers to the concentration at which inhibition is half-maximal. A high value points to weaker potency in that assay.

A short description of assay [1]: Concentration required for 50% inhibition of influenza neuraminidase incubated in rat plasma at 37 degrees Celsius prior to assay. The class given is cell-free. The following applies: unidentified influenza virus.
Assay [2] in a line: Concentration required for 50% inhibition of influenza neuraminidase. Set-up: species or system unidentified influenza virus.

In turn, `CCCS[C@@H]1C=C(C(=O)O)C[C@H](N)[C@H]1NC(C)=O` registered an IC50 in assay [1] of 0.212 µM.
Regarding `CCCO[C@@H]1C=C(C(=O)O)C[C@H](N)[C@H]1NC(C)=O`, in assay [2], the IC50 amounted to 0.13 µM.
In turn, `CCCC[C@@H]1C=C(C(=O)O)C[C@H](N)[C@H]1NC(C)=O` gave an IC50 in assay [2] of 0.22 µM.
